Measured values reported in patent US7534785B2, “3,6-dihydro-2-oxo-6H-1,3,4,-thiadiazine derivatives” (Merck Patent Gesellschaft, priority 2005, dated 2009).

Molecular target: T1, Met kinase (Homo sapiens, UniProt P08581)
T1 construct: 6His (N); purchased Upstate 14-526; host or cells: Sf21 insect cells (S. frugiperda), baculovirus
Assay: Met kinase inhibition, flashplate method
Format: biochemical
Conditions: 1 μM ATP, substrate pAGLT, 3 hrs at room temperature, read-out: IC50 (enzyme)
From the text: According to the manufacturer's data (Met, active, upstate, catalogue No. 14-526), Met kinase is expressed for the purposes of protein production in insect cells (Sf21; S. frugiperda) and subsequent affinity-chromatographic purification as “N-terminal 6His-tagged” recombinant human protein in a baculovirus expression vector.
The test plates used are 96-well Flashplate® microtitre plates from Perkin Elmer (Cat. No. SMP200). The components of the kinase reaction described below are pipetted into the assay plate. The Met kinase and the substrate poly Ala-Glu-Lys-Tyr, (pAGLT, 6:2:5:1), are incubated for 3 hrs at room temperature with radioactively labelled ^33P-ATP in the presence and absence of test substances in a total volume of 100 μl. The reaction is terminated using 150 μl of a 60 mM EDTA solution. After incubation for a further 30 min at room temperature, the supernatants are filtered off with suction, and the wells are washed three times with 200 μl of 0.9% NaCl solution each time. The measurement of the bound radioactivity is carried out by means of a scintillation measuring instrument (Topcount NXT, Perkin-Elmer).
The full value used is the inhibitor-free kinase reaction. This should be approximately in the range 6000-9000 cpm. The pharmacological zero value used is staurosporin in a final concentration of 0.1 mM. The inhibitory values (IC50) are determined using the RS1_MTS program.
Kinase Reaction Conditions per Well: • 30 μl of assay buffer • 10 μl of substance to be tested in assay buffer with 10% of DMSO • 10 μl of ATP (final concentration 1 μM cold, 0.35 μCi of ^33P-ATP) • 50 μl of Met kinase/substrate mixture in assay buffer; • (10 ng of enzyme/well, 50 ng of pAGLT/well)
Solutions Used: • Assay Buffer: • 50 mM HEPES • 3 mM magnesium chloride • 3 μM sodium orthovanadate • 3 mM manganese(II) chloride • 1 mM dithiothreitol (DTT) • pH=7.5 (to be set using sodium hydroxide) • Stop Solution: • 60 mM Titriplex III (EDTA) • ^33P-ATP: Perkin-Elmer; • Met kinase: Upstate, Cat. No. 14-526, Stock 1 μg/10 μl; spec. activity 954 U/mg; • Poly-Ala-Glu-Lys-Tyr, 6:2:5:1:Sigma Cat. No. P1152

T1 sequence (P08581 25-1390): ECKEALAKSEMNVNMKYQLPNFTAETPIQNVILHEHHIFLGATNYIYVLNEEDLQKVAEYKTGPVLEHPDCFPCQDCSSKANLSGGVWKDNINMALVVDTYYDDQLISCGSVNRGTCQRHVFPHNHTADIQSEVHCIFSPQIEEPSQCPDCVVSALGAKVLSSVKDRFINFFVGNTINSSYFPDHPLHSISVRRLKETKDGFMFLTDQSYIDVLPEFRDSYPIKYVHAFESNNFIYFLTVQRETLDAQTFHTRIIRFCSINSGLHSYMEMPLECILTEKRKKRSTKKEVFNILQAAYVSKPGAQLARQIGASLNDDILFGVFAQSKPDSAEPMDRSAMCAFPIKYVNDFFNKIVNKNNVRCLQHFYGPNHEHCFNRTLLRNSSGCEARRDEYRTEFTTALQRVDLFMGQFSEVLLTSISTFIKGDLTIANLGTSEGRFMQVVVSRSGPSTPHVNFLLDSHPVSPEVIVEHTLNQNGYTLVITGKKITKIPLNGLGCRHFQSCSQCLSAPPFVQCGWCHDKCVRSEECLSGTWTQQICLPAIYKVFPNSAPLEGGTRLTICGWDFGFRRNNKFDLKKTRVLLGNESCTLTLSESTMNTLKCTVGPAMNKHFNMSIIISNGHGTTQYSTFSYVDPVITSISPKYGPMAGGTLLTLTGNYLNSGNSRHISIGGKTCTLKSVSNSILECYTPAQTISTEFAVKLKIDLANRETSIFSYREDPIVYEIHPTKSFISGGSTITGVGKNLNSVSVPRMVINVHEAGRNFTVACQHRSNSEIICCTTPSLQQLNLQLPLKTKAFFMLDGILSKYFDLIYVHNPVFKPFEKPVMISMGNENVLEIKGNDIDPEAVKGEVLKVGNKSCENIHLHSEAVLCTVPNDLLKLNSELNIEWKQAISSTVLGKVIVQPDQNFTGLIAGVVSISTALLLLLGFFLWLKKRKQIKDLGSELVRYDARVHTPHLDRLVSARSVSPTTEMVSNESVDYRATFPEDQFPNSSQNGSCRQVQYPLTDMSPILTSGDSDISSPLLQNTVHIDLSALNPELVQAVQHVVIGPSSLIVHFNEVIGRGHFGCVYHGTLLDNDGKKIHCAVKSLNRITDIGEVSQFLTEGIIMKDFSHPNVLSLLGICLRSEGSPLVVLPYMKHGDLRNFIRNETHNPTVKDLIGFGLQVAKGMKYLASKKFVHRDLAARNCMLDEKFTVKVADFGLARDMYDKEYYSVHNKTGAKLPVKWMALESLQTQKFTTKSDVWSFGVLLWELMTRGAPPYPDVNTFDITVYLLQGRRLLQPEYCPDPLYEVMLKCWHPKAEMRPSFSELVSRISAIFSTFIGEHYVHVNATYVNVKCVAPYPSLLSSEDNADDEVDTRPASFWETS

IC50 | Compound
10 to 1000 nM | CCOC(=O)C(=O)Nc1cccc(CN2N=C(c3ccc(Cl)cc3)CSC2=O)c1 [Compound A9, ethyl N-{3-[5-(4-chlorophenyl)-2-oxo-6H-1,3,4-thiadiazin-3-ylmethyl]phenyl}oxalaminate]
10 to 1000 nM | CNCCNC(=O)Nc1cccc(CN2N=C(c3ccc(C#N)cc3)CSC2=O)c1 [Compound A10]
10 to 1000 nM | CN(C)C(=O)Nc1cccc(CN2N=C(c3cc(Cl)ccc3O)CSC2=O)c1 [Compound A12]

More lines, now with the values behind:

Compound | IC50
CN1CCC(CNC(=O)Nc2cccc(CN3N=C(c4ccc(Cl)cc4)CSC3=O)c2)C1 (centres unmarked) [Compound A1, 1-{3-[5-(4-chlorophenyl)-2-oxo-6H-1,3,4-thiadiazin-3-ylmethyl]phenyl}-3-(1-methylpyrrolidin-3-ylmethyl)urea] | 10 to 1000 nM
CCNC(=O)Nc1cccc(CN2N=C(c3cc(Cl)ccc3O)CSC2=O)c1 [Compound A2] | 10 to 1000 nM
CCN(CC)CCCNC(=O)Nc1cccc(CN2N=C(c3ccc(Cl)cc3)CSC2=O)c1 [Compound A3] | 10 to 1000 nM
C[C@H](O)CNC(=O)Nc1cccc(CN2N=C(c3ccc(Cl)cc3)CSC2=O)c1 [Compound A4] | 10 to 1000 nM
O=C(NCCO)Nc1cccc(CN2N=C(c3ccc(Cl)cc3)CSC2=O)c1 [Compound A5] | 10 to 1000 nM
